According to article PMC5218480 (PLoS ONE, 2017):

Test system: MV-4-11 cells
Assay: Gene expression microarray analysis (Affymetrix PrimeView) and GSEA
Format: cell-based, human
Design: RFU PODN (11730768_x_at) / Fold change /veh PODN (11730768_x_at) / RFU LINC00158 (11744669_a_at) / Fold change /veh LINC00158 (11744669_a_at) / RFU DUSP10 (11751237_a_at) / Fold change /veh DUSP10 (11751237_a_at) / RFU ID3 (11757404_x_at) / Fold change /veh ID3 (11757404_x_at) / RFU PLEKHG5 (11737974_s_at) / Fold change /veh PLEKHG5 (11737974_s_at) / RFU LRRC4B (11730491_at) / Fold change /veh LRRC4B (11730491_at) / RFU GIMAP4 (11747438_a_at) / Fold change /veh GIMAP4 (11747438_a_at) / RFU KRT8 (11758183_x_at) / Fold change /veh KRT8 (11758183_x_at) / RFU CNN1 (11734310_a_at) / Fold change /veh CNN1 (11734310_a_at) / RFU VPS37D (11726825_at) / Fold change /veh VPS37D (11726825_at) / RFU C10orf10 (11716522_x_at) / Fold change /veh C10orf10 (11716522_x_at) / RFU KIR2DL2 /// KIR2DL4 /// KIR2DL5A /// KIR2DL5B /// KIR2DS1 /// KIR2DS2 /// KIR2DS3 /// KIR2DS4 /// KIR3DL3 /// KIR3DL3 /// KIR3DS1 (11738374_at) / Fold change /veh KIR2DL2 /// KIR2DL4 /// KIR2DL5A /// KIR2DL5B /// KIR2DS1 /// KIR2DS2 /// KIR2DS3 /// KIR2DS4 /// KIR3DL3 /// KIR3DL3 /// KIR3DS1 (11738374_at) / RFU C1QL1 (11718748_at) / Fold change /veh C1QL1 (11718748_at) / RFU TMPRSS4 (11747572_a_at) / Fold change /veh TMPRSS4 (11747572_a_at) / RFU HAMP (11756126_x_at) / Fold change /veh HAMP (11756126_x_at) / RFU RNFT2 (11725882_a_at) / Fold change /veh RNFT2 (11725882_a_at) / RFU NR4A2 (11747474_a_at) / Fold change /veh NR4A2 (11747474_a_at) / RFU ABCC12 (11746883_a_at) / Fold change /veh ABCC12 (11746883_a_at) / RFU TMEM136 (11760407_x_at) / Fold change /veh TMEM136 (11760407_x_at) / RFU CLDN22 /// WWC2 (11732394_at) / Fold change /veh CLDN22 /// WWC2 (11732394_at) / RFU HLA-DPB1 (11760878_x_at) / Fold change /veh HLA-DPB1 (11760878_x_at) / RFU SPINT1 (11716480_a_at) / Fold change /veh SPINT1 (11716480_a_at) / RFU GAP43 (11754022_s_at) / Fold change /veh GAP43 (11754022_s_at) / RFU A4GNT (11735810_at) / Fold change /veh A4GNT (11735810_at) / RFU PRB3 (11715151_x_at) / Fold change /veh PRB3 (11715151_x_at) / RFU TUBB4B (11761932_at) / Fold change /veh TUBB4B (11761932_at) / RFU CAPN14 (11732068_a_at) / Fold change /veh CAPN14 (11732068_a_at) / RFU TMCC2 (11721928_a_at) / Fold change /veh TMCC2 (11721928_a_at) / RFU IRGQ (11745062_a_at) / Fold change /veh IRGQ (11745062_a_at) / RFU FAM174B (11720279_a_at) / Fold change /veh FAM174B (11720279_a_at) / RFU TMPRSS4 (11748680_a_at) / Fold change /veh TMPRSS4 (11748680_a_at) / RFU FAM212B (11763350_a_at) / Fold change /veh FAM212B (11763350_a_at) / RFU PLEKHG5 (11743358_a_at) / Fold change /veh PLEKHG5 (11743358_a_at) / RFU ZSCAN30 (11745921_a_at) / Fold change /veh ZSCAN30 (11745921_a_at) / RFU CMKLR1 (11741424_a_at) / Fold change /veh CMKLR1 (11741424_a_at) / RFU LOC101060620 /// MAPK8IP1 (11723275_at) / Fold change /veh LOC101060620 /// MAPK8IP1 (11723275_at) / RFU SPTSSB (11747773_x_at) / Fold change /veh SPTSSB (11747773_x_at) / RFU PRSS12 (11739890_at) / Fold change /veh PRSS12 (11739890_at) / RFU BIN1 (11741810_x_at) / Fold change /veh BIN1 (11741810_x_at) / RFU WNT11 (11732464_a_at) / Fold change /veh WNT11 (11732464_a_at) / RFU C10orf10 (11716521_a_at) / Fold change /veh C10orf10 (11716521_a_at) / RFU C5orf56 (11738089_at) / Fold change /veh C5orf56 (11738089_at) / RFU CYB561 (11721691_x_at) / Fold change /veh CYB561 (11721691_x_at) / RFU ANKRD19P (11752326_a_at) / Fold change /veh ANKRD19P (11752326_a_at) / RFU OR2T12 /// OR2T33 /// OR2T8 (11738714_s_at) / Fold change /veh OR2T12 /// OR2T33 /// OR2T8 (11738714_s_at) / RFU VCAN (11748164_a_at) / Fold change /veh VCAN (11748164_a_at) / RFU JSRP1 (11732532_at) / Fold change /veh JSRP1 (11732532_at) / RFU KRTAP10-11 (11738290_x_at) / Fold change /veh KRTAP10-11 (11738290_x_at) / RFU MYO3A (11730013_a_at) / Fold change /veh MYO3A (11730013_a_at) / RFU EBF3 (11725865_a_at) / Fold change /veh EBF3 (11725865_a_at) / RFU CAMK2N1 (11719241_x_at) / Fold change /veh CAMK2N1 (11719241_x_at) / RFU C5orf56 (11738088_a_at) / Fold change /veh C5orf56 (11738088_a_at) / RFU OLFML3 (11715873_a_at) / Fold change /veh OLFML3 (11715873_a_at) / RFU LOC100653217 /// NTM (11731650_a_at) / Fold change /veh LOC100653217 /// NTM (11731650_a_at) / RFU MAPK11 (11762145_a_at) / Fold change /veh MAPK11 (11762145_a_at) / RFU FIZ1 (11724087_x_at) / Fold change /veh FIZ1 (11724087_x_at) / RFU OASL (11726364_x_at) / Fold change /veh OASL (11726364_x_at) / RFU SOX15 (11748057_x_at) / Fold change /veh SOX15 (11748057_x_at) / RFU CD79A (11719716_a_at) / Fold change /veh CD79A (11719716_a_at) / RFU HIST1H1D (11736915_at) / Fold change /veh HIST1H1D (11736915_at) / RFU CASKIN2 (11723855_a_at) / Fold change /veh CASKIN2 (11723855_a_at) / RFU LOC730098 (11760151_x_at) / Fold change /veh LOC730098 (11760151_x_at) / RFU OR4N2 (11742367_at) / Fold change /veh OR4N2 (11742367_at) / RFU PRRT2 (11749266_a_at) / Fold change /veh PRRT2 (11749266_a_at) / RFU SNX32 (11753110_a_at) / Fold change /veh SNX32 (11753110_a_at) / RFU CDHR5 (11726645_a_at) / Fold change /veh CDHR5 (11726645_a_at) / RFU RCAN1 (11760418_a_at) / Fold change /veh RCAN1 (11760418_a_at) / RFU FAM167A (11723789_a_at) / Fold change /veh FAM167A (11723789_a_at) / RFU FAM26E (11764081_at) / Fold change /veh FAM26E (11764081_at) / RFU ISYNA1 (11749810_s_at) / Fold change /veh ISYNA1 (11749810_s_at) / RFU ACY1 (11761880_at) / Fold change /veh ACY1 (11761880_at) / RFU 11764098_at / Fold change /veh 11764098_at / RFU SAMD14 (11745864_x_at) / Fold change /veh SAMD14 (11745864_x_at) / RFU NPB (11741838_a_at) / Fold change /veh NPB (11741838_a_at) / RFU TMPRSS6 (11731388_a_at) / Fold change /veh TMPRSS6 (11731388_a_at) / RFU KRTAP10-2 (11738614_at) / Fold change /veh KRTAP10-2 (11738614_at) / RFU ARHGAP8 /// PRR5-ARHGAP8 (11727945_x_at) / Fold change /veh ARHGAP8 /// PRR5-ARHGAP8 (11727945_x_at) / RFU KRTAP5-7 /// NADSYN1 (11734609_at) / Fold change /veh KRTAP5-7 /// NADSYN1 (11734609_at) / RFU RASL12 (11751679_a_at) / Fold change /veh RASL12 (11751679_a_at) / RFU CDKN2B (11736163_a_at) / Fold change /veh CDKN2B (11736163_a_at) / RFU PRF1 (11729649_at) / Fold change /veh PRF1 (11729649_at) / RFU, ZNF638 /// ZNF638-IT1 / Fold change vs veh, ZNF638 /// ZNF638-IT1 / RFU, PANK3 / Fold change vs veh, PANK3 / RFU, SH3YL1 / Fold change vs veh, SH3YL1 / RFU, ZEB2 / Fold change vs veh, ZEB2 / RFU, NRIP1 / Fold change vs veh, NRIP1 / RFU, PTTG1IP / Fold change vs veh, PTTG1IP / RFU, CAPN2 / Fold change vs veh, CAPN2 / RFU, MED14 / Fold change vs veh, MED14 / RFU, SNORA58 / Fold change vs veh, SNORA58 / RFU, C1orf63 / Fold change vs veh, C1orf63 / RFU, LRRFIP1 / Fold change vs veh, LRRFIP1 / RFU, NDUFAF7 / Fold change vs veh, NDUFAF7 / RFU, SLC12A2 / Fold change vs veh, SLC12A2 / RFU, IBTK / Fold change vs veh, IBTK / RFU, ESF1 / Fold change vs veh, ESF1 / Fold change vs veh, TMEM50B / RFU, TAOK1 / Fold change vs veh, TAOK1 / RFU, ACBD3 / Fold change vs veh, ACBD3 / RFU, TMA16 / Fold change vs veh, TMA16 / RFU, RWDD3 / Fold change vs veh, RWDD3 / RFU, BCAT1 / Fold change vs veh, BCAT1 / RFU, EDEM3 / Fold change vs veh, EDEM3 / RFU, TMEM33 / Fold change vs veh, TMEM33 / RFU, WDR75 / Fold change vs veh, WDR75 / RFU, AHCTF1 / Fold change vs veh, AHCTF1 / RFU, TFRC / Fold change vs veh, TFRC / RFU, ZDHHC17 / Fold change vs veh, ZDHHC17 / RFU, NOM1 / Fold change vs veh, NOM1 / RFU, ARL8B / Fold change vs veh, ARL8B / RFU, ZBTB11 / Fold change vs veh, ZBTB11 / RFU, TAMM41 / Fold change vs veh, TAMM41 / RFU, KIAA1704 /// LOC100996395 / Fold change vs veh, KIAA1704 /// LOC100996395 / RFU, ING1 / Fold change vs veh, ING1 / RFU, TRMT61B / Fold change vs veh, TRMT61B / RFU, FUBP3 / Fold change vs veh, FUBP3 / RFU, TP53 / Fold change vs veh, TP53 / RFU, TNKS2 / Fold change vs veh, TNKS2 / RFU, ZFP14 / Fold change vs veh, ZFP14 / RFU, ACTR2 / Fold change vs veh, ACTR2 / RFU, PPP3R1 / Fold change vs veh, PPP3R1 / RFU, PIK3R1 / Fold change vs veh, PIK3R1 / RFU, HNRNPA1 / Fold change vs veh, HNRNPA1 / RFU, RNF170 / Fold change vs veh, RNF170 / RFU, ZNF28 / Fold change vs veh, ZNF28 / RFU, RNGTT / Fold change vs veh, RNGTT / RFU, OGT / Fold change vs veh, OGT / RFU, BRD1 / Fold change vs veh, BRD1 / RFU, MARS / Fold change vs veh, MARS / RFU, ZNF655 / Fold change vs veh, ZNF655 / RFU, FAHD1 / Fold change vs veh, FAHD1 / RFU, BDP1 / Fold change vs veh, BDP1 / RFU, LRRCC1 / Fold change vs veh, LRRCC1 / RFU, ARID1A / Fold change vs veh, ARID1A / RFU, ZNF146 / Fold change vs veh, ZNF146 / RFU, ZNF330 / Fold change vs veh, ZNF330 / RFU, GPN3 / Fold change vs veh, GPN3 / RFU, C9orf123 / Fold change vs veh, C9orf123 / RFU, N4BP2L2 / Fold change vs veh, N4BP2L2 / RFU, ARFIP1 / Fold change vs veh, ARFIP1 / RFU, FAM179B / Fold change vs veh, FAM179B / RFU, BCL10 / Fold change vs veh, BCL10 / RFU, UHRF1BP1L / Fold change vs veh, UHRF1BP1L / RFU, BET1 / Fold change vs veh, BET1 / RFU, CNOT2 / Fold change vs veh, CNOT2 / RFU, ZNF268 / Fold change vs veh, ZNF268 / Fold change vs veh, ZNF507 / RFU, DGCR2 / Fold change vs veh, DGCR2 / RFU, WDSUB1 / Fold change vs veh, WDSUB1 / Fold change vs veh, HSP90B1 /// MIR3652 / RFU, ADSS / Fold change vs veh, ADSS / RFU, GK / Fold change vs veh, GK / RFU, ZNF148 / Fold change vs veh, ZNF148 / RFU, TAF9 / Fold change vs veh, TAF9 / RFU, SLC1A5 / Fold change vs veh, SLC1A5 / RFU, SLMO2 / Fold change vs veh, SLMO2 / RFU, ABCC4 / Fold change vs veh, ABCC4 / RFU, LOC101060439 /// RAP1B / Fold change vs veh, LOC101060439 /// RAP1B / RFU, RFX7 / Fold change vs veh, RFX7 / RFU, GTPBP10 / Fold change vs veh, GTPBP10 / RFU, CNEP1R1 / Fold change vs veh, CNEP1R1 / RFU, BIVM-ERCC5 /// ERCC5 / Fold change vs veh, BIVM-ERCC5 /// ERCC5 / RFU, ILF3 / Fold change vs veh, ILF3 / RFU 11762660_at / Fold change /veh 11762660_at / RFU VCAN (11757783_s_at) / Fold change /veh VCAN (11757783_s_at) / RFU DDX43 (11728927_at) / Fold change /veh DDX43 (11728927_at) / RFU KRT8 (11758188_x_at) / Fold change /veh KRT8 (11758188_x_at) / RFU NKD1 (11759106_at) / Fold change /veh NKD1 (11759106_at) / RFU SRD5A1 (11742802_a_at) / Fold change /veh SRD5A1 (11742802_a_at) / RFU TPSAB1 /// TPSB2 (11721975_s_at) / Fold change /veh TPSAB1 /// TPSB2 (11721975_s_at) / RFU GSTM3 (11746129_a_at) / Fold change /veh GSTM3 (11746129_a_at) / RFU IL23R (11737362_x_at) / Fold change /veh IL23R (11737362_x_at) / RFU TMEM51 (11727254_a_at) / Fold change /veh TMEM51 (11727254_a_at) / RFU PIWIL2 (11732686_x_at) / Fold change /veh PIWIL2 (11732686_x_at) / RFU ORM1 (11744905_x_at) / Fold change /veh ORM1 (11744905_x_at) / RFU CCDC152 (11743942_at) / Fold change /veh CCDC152 (11743942_at) / RFU ECM1 (11717891_a_at) / Fold change /veh ECM1 (11717891_a_at) / RFU IL23R (11748794_a_at) / Fold change /veh IL23R (11748794_a_at) / RFU TNFAIP8L3 (11732012_x_at) / Fold change /veh TNFAIP8L3 (11732012_x_at) / RFU MBOAT4 (11741988_at) / Fold change /veh MBOAT4 (11741988_at) / RFU 11764193_at / Fold change /veh 11764193_at / RFU TMEM53 (11763286_at) / Fold change /veh TMEM53 (11763286_at) / RFU MAGEB2 (11727129_at) / Fold change /veh MAGEB2 (11727129_at) / RFU TMEM200A (11744735_a_at) / Fold change /veh TMEM200A (11744735_a_at) / RFU CCDC152 (11751479_a_at) / Fold change /veh CCDC152 (11751479_a_at) / RFU FAM211A (11726209_a_at) / Fold change /veh FAM211A (11726209_a_at) / RFU RGS16 (11746705_a_at) / Fold change /veh RGS16 (11746705_a_at) / RFU VCAN (11755009_s_at) / Fold change /veh VCAN (11755009_s_at) / RFU RHOB (11743442_s_at) / Fold change /veh RHOB (11743442_s_at) / RFU RGS16 (11720943_a_at) / Fold change /veh RGS16 (11720943_a_at) / RFU RGS16 (11720944_at) / Fold change /veh RGS16 (11720944_at) / RFU, VPS4B / Fold change vs veh, VPS4B / RFU, CREB1 / Fold change vs veh, CREB1 / RFU, DNAJC13 / Fold change vs veh, DNAJC13 / RFU, GNAQ / Fold change vs veh, GNAQ / RFU, CDK5R1 / Fold change vs veh, CDK5R1 / RFU, ZRANB3 / Fold change vs veh, ZRANB3 / RFU, CUL4A / Fold change vs veh, CUL4A / RFU, CCNY / Fold change vs veh, CCNY / RFU, UFL1 / Fold change vs veh, UFL1 / RFU, COG3 / Fold change vs veh, COG3 / RFU, DIAPH2 / Fold change vs veh, DIAPH2 / RFU, SKA2 / Fold change vs veh, SKA2 / RFU, AFF3 / Fold change vs veh, AFF3 / RFU, LMF1 / Fold change vs veh, LMF1 / RFU, IPO11 / Fold change vs veh, IPO11 / RFU, DFFB / Fold change vs veh, DFFB / RFU, FOXP1 / Fold change vs veh, FOXP1 / RFU, CARD8 / Fold change vs veh, CARD8 / RFU, STRN3 / Fold change vs veh, STRN3 / RFU, ADK / Fold change vs veh, ADK / RFU, RASSF2 / Fold change vs veh, RASSF2 / RFU, WIPF1 / Fold change vs veh, WIPF1 / RFU, LARP1B / Fold change vs veh, LARP1B / RFU, RASA1 / Fold change vs veh, RASA1 / RFU, RB1 / Fold change vs veh, RB1 / RFU, PPFIA1 / Fold change vs veh, PPFIA1 / RFU, MAT2A / Fold change vs veh, MAT2A / RFU, CCT5 / Fold change vs veh, CCT5 / RFU, WDR92 / Fold change vs veh, WDR92 / RFU, CUX1 / Fold change vs veh, CUX1 / RFU, TTC7A / Fold change vs veh, TTC7A / RFU, TMEM135 / Fold change vs veh, TMEM135 / RFU, DEPTOR / Fold change vs veh, DEPTOR / RFU, CPM / Fold change vs veh, CPM / RFU, DNAJB6 / Fold change vs veh, DNAJB6 / RFU, CACNA2D3 / Fold change vs veh, CACNA2D3 / RFU, DTX4 / Fold change vs veh, DTX4 / RFU, TFCP2 / Fold change vs veh, TFCP2 / RFU, GMCL1 /// GMCL1P1 / Fold change vs veh, GMCL1 /// GMCL1P1 / RFU, AEBP2 / Fold change vs veh, AEBP2 / RFU, SNHG1 /// SNORD22 /// SNORD25 /// SNORD26 /// SNORD27 /// SNORD28 /// SNORD29 /// SNORD31 / Fold change vs veh, SNHG1 /// SNORD22 /// SNORD25 /// SNORD26 /// SNORD27 /// SNORD28 /// SNORD29 /// SNORD31 / Fold change (Aza/veh), C12orf56 (ProbeSet 11735607_a_at) / Fold change (ACY-1035/veh), C12orf56 (ProbeSet 11735607_a_at) / Fold change (Aza/veh), FGFR1OP (ProbeSet 11751329_s_at) / Fold change (ACY-1035/veh), FGFR1OP (ProbeSet 11751329_s_at) / Fold change (Aza/veh), VPS36 (ProbeSet 11739960_a_at) / Fold change (ACY-1035/veh), VPS36 (ProbeSet 11739960_a_at) / RFU SYPL1 (11715823_x_at) / Fold change /veh SYPL1 (11715823_x_at) / RFU IGFBP7 (11715501_s_at) / Fold change /veh IGFBP7 (11715501_s_at) / RFU REEP3 (11722064_at) / Fold change /veh REEP3 (11722064_at) / RFU IGLL1 (11728026_x_at) / Fold change /veh IGLL1 (11728026_x_at): dose or concentration left out as unconfirmed
Conditions: ProbeSet 11716865_a_at; LIST B

In the case of Nc1ccc(-c2cccs2)cc1NC(=O)c1ccc2c(c1)cc(C1CC1)n2CCN1CCOCC1 [ACY-1035], the “Fold change vs veh, SLC1A5” value is reported as 0.85.
